Assay: xn = mol fraction of the nth substance listed
Conditions: 101 kPa, Liquid, Vibrating tube method

C=C[Si](C)(C)O[Si](C)(C)C=C [1,3-diethenyl-1,1,3,3-tetramethyldisiloxane] + CCc1ccccc1
mass density [kg/m3]
Conditions	283.15 K	288.15 K	293.15 K	298.15 K	303.15 K
x1 = 0.0501	871.7	867.28	862.84	858.47	854.01
x1 = 0.1001	867.93	863.46	858.98	854.58	850.08
x1 = 0.1499	864.35	859.85	855.33	850.89	846.35
x1 = 0.2001	860.93	856.41	851.85	847.37	842.8
x1 = 0.25	857.68	853.12	848.52	844.02	839.42
x1 = 0.3	854.59	850	845.38	840.85	836.21
x1 = 0.3499	851.64	847.02	842.37	837.8	833.13
x1 = 0.4	848.82	844.17	839.49	834.91	830.22
x1 = 0.4501	846.13	841.46	836.76	832.14	827.42
x1 = 0.5	843.56	838.86	834.13	829.5	824.76
x1 = 0.5503	841.09	836.39	831.62	826.96	822.2
x1 = 0.6	838.73	834.01	829.22	824.53	819.75
x1 = 0.6501	836.45	831.7	826.89	822.19	817.38
x1 = 0.6999	834.3	829.53	824.71	819.97	815.14
x1 = 0.7502	832.18	827.39	822.55	817.79	812.94
x1 = 0.8001	830.16	825.33	820.48	815.7	810.84
x1 = 0.85	828.22	823.42	818.54	813.71	808.83
x1 = 0.8999	826.37	821.53	816.65	811.81	806.91
x1 = 0.9498	824.65	819.79	814.89	810.02	805.11
x1 = 1	822.79	817.88	812.97	808.11	803.18

C=C[Si](C)(C)O[Si](C)(C)C=C [1,3-diethenyl-1,1,3,3-tetramethyldisiloxane] + COc1ccccc1
mass density [kg/m3]
Conditions	283.15 K	288.15 K	293.15 K	298.15 K	303.15 K
x1 = 0.0501	987.07	982.37	977.74	973.02	968.3
x1 = 0.1	972.12	967.42	962.75	958.01	953.27
x1 = 0.15	958.3	953.58	948.89	944.14	939.38
x1 = 0.2004	945.4	940.66	935.96	931.19	926.42
x1 = 0.2499	933.62	928.87	924.15	919.36	914.57
x1 = 0.3	922.54	917.77	913.04	908.24	903.45
x1 = 0.35	912.24	907.47	902.73	897.91	893.1
x1 = 0.3997	902.67	897.88	893.12	888.29	883.45
x1 = 0.4499	893.63	888.81	884.04	879.2	874.35
x1 = 0.5001	885.14	880.31	875.53	870.68	865.82
x1 = 0.5499	877.24	872.4	867.62	862.75	857.88
x1 = 0.6	869.73	864.89	860.09	855.21	850.33
x1 = 0.6499	862.68	857.84	853.04	848.15	843.25
x1 = 0.6999	856.02	851.16	846.35	841.46	836.55
x1 = 0.7499	849.72	844.85	840.03	835.13	830.23
x1 = 0.8	843.72	838.85	834.02	829.11	824.19
x1 = 0.8499	838.07	833.19	828.35	823.44	818.52
x1 = 0.8998	832.69	827.81	822.98	818.06	813.14
x1 = 0.9499	827.56	822.67	817.83	812.91	808
x1 = 1	822.67	817.77	812.92	808	803.07

C=C[Si](C)(C)O[Si](C)(C)C=C [1,3-diethenyl-1,1,3,3-tetramethyldisiloxane] + Clc1ccccc1
mass density [kg/m3]
Conditions	283.15 K	288.15 K	293.15 K	298.15 K	303.15 K
x1 = 0.05	1088.46	1083.08	1077.71	1072.36	1066.76
x1 = 0.0998	1062.49	1057.12	1051.77	1046.38	1040.76
x1 = 0.15	1038.61	1033.26	1027.97	1022.56	1017.01
x1 = 0.1996	1017.1	1011.78	1006.49	1001.12	995.49
x1 = 0.25	997.1	991.8	986.55	981.23	975.62
x1 = 0.2999	978.91	973.63	968.41	963.12	957.62
x1 = 0.35	962.04	956.8	951.57	946.3	940.79
x1 = 0.3999	946.48	941.25	936.1	930.87	925.47
x1 = 0.4496	932.12	926.93	921.78	916.57	911.17
x1 = 0.4999	918.61	913.45	908.32	903.14	897.77
x1 = 0.5499	906.09	900.94	895.84	890.68	885.33
x1 = 0.6	894.37	889.27	884.19	879.04	873.73
x1 = 0.6469	884.06	878.98	873.94	868.82	863.55
x1 = 0.6998	873.18	868.11	863.11	858.02	852.81
x1 = 0.7499	863.47	858.44	853.45	848.41	843.25
x1 = 0.7997	854.39	849.39	844.44	839.42	834.3
x1 = 0.8499	845.78	840.8	835.87	830.88	825.82
x1 = 0.8996	837.7	832.75	827.85	822.88	817.86
x1 = 0.9497	830	825.08	820.22	815.27	810.3
x1 = 1	822.68	817.77	812.94	808.01	803.06

C=C[Si](C)(C)O[Si](C)(C)C=C [1,3-diethenyl-1,1,3,3-tetramethyldisiloxane] + Fc1ccccc1
mass density [kg/m3]
Conditions	283.15 K	288.15 K	293.15 K	298.15 K	303.15 K
x1 = 0.05	1013.6	1007.66	1001.73	995.86	989.74
x1 = 0.1	992.96	987.08	981.21	975.37	969.31
x1 = 0.15	974.59	968.74	962.94	957.17	951.1
x1 = 0.1993	958.3	952.51	946.77	941.03	934.98
x1 = 0.25	943.25	937.46	931.8	926.13	920.12
x1 = 0.2999	929.85	924.19	918.57	913	907.17
x1 = 0.35	917.58	911.93	906.37	900.84	895
x1 = 0.4	906.43	900.85	895.33	889.86	884.09
x1 = 0.45	896.19	890.66	885.22	879.75	874.12
x1 = 0.5	886.76	881.29	875.91	870.51	864.97
x1 = 0.5501	878.08	872.69	867.38	862.04	856.56
x1 = 0.6	870.07	864.73	859.45	854.19	848.77
x1 = 0.6501	862.6	857.33	852.11	846.89	841.53
x1 = 0.7	855.69	850.46	845.29	840.15	834.87
x1 = 0.7501	849.23	844.06	838.93	833.84	828.63
x1 = 0.8	843.23	838.1	833.02	827.99	822.84
x1 = 0.85	837.56	832.51	827.46	822.49	817.39
x1 = 0.8998	832.28	827.28	822.3	817.36	812.32
x1 = 0.95	827.28	822.33	817.38	812.49	807.52
x1 = 1	822.56	817.66	812.74	807.9	802.97
